This is an account of results in patent US20230265151A1, “GIP/GLP1 CO-AGONIST COMPOUNDS” (priority 2020, published 2023).

Where two headings read alike, the source gives them in different places. A value given as a limit tells only on which side of the number the result lay.

In test [1] the target is T1, hGCGR (Homo sapiens, UniProt P47871).
T1 construct: expressed in transfected cells
Briefly: Functional cAMP formation (HTRF) in HEK-293 clonal cells expressing hGCGR, 0.1% bovine casein, without or with 1.0% human serum albumin. The test is classed as cell-based. The gist of the method: (§1)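 Cells were stimulated with peptide for 30 min at 37° C, then intracellular cAMP was measured by competitive HTRF (665/620 nm ratio) and converted to nM using a cAMP standard curve. Relative EC50 and Emax came from four-parameter logistic fits of percent maximal response against peptide concentration.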

In test [2] the target is T2, human GLP-1 receptor (hGLP-1R) (Homo sapiens, UniProt P43220).
T2 construct: expressed in transfected cells; crude membranes
Briefly: [125I]-GLP-1 binding, SPA with membranes of HEK293 cells expressing hGLP-1R.

Test [3] concerns the target hGLP-1R (Homo sapiens, UniProt P43220). Put plainly: Functional cAMP formation (HTRF) in HEK-293 clonal cells expressing hGLP-1R, 0.1% bovine casein, without or with 1.0% human serum albumin. The test is classed as cell-based. Also on record: expressed in transfected cells. To be noted: for EC50: geometric mean. The gist of the method:
as §1

In test [4] the target is T3, hGIPR (Homo sapiens, UniProt P48546).
T3 construct: expressed in transfected cells
T3 sequence (P48546 22-466): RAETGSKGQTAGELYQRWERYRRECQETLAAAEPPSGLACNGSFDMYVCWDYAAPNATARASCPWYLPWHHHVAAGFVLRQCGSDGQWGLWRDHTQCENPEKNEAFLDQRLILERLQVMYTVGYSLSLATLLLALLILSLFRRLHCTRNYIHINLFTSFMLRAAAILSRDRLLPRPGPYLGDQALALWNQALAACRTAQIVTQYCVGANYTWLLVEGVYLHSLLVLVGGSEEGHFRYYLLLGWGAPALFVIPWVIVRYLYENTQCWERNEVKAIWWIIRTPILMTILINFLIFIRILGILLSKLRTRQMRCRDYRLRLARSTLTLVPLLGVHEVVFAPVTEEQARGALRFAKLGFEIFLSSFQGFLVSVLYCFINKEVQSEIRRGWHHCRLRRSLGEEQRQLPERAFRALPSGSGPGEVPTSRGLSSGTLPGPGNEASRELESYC
Briefly: Functional cAMP formation (HTRF) in HEK-293 clonal cells expressing hGIPR, 0.1% bovine casein, without or with 1.0% human serum albumin. The format is cell-based. To be noted: for EC50: geometric mean. The method, boiled down: as §1

Where [5] appears, read: hGCGR EC50, nM (SEM, n), cAMP, 37° C., 0.1% bovine casein (no human serum albumin), geometric mean.
[6] abbreviates: hGCGR EC50, nM (SEM, n), cAMP, 37° C., 0.1% bovine casein and 1.0% human serum albumin, geometric mean (SEM, n).
Where [7] appears, read: HEK293, read-out: hGLP-1R Emax, % ± SEM, cAMP, 37° C., 0.1% bovine casein and 1.0% human serum albumin, percent of maximal response to GLP-1(7-36)NH2.
The mark [8] stands for this setting: hGLP-1R EC50, nM (SEM, n), cAMP, 37° C., 0.1% bovine casein (no human serum albumin).
Where [9] appears, read: HEK293, read-out: hGIPR Emax, % ± SEM, cAMP, 37° C., 0.1% bovine casein and 1.0% human serum albumin, percent of maximal response to GIP(1-42)NH2.
The mark [10] stands for this setting: hGIPR EC50, nM (SEM, n), cAMP, 37° C., 0.1% bovine casein (no human serum albumin).

Sequence of hGLP-1R (P43220 24-463): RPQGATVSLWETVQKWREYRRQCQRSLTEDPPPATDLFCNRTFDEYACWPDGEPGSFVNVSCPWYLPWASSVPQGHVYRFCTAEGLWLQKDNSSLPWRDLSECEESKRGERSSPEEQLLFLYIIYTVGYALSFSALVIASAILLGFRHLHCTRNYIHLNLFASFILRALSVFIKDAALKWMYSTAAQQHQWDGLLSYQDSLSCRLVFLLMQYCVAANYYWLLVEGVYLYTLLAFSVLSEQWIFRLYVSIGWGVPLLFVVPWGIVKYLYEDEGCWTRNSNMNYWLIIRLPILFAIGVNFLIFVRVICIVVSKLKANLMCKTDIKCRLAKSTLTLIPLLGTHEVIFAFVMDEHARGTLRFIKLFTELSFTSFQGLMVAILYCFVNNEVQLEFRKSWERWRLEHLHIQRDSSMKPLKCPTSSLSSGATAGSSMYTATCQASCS
T2 sequence (P43220 24-463): as above
T1 sequence (P47871 26-477): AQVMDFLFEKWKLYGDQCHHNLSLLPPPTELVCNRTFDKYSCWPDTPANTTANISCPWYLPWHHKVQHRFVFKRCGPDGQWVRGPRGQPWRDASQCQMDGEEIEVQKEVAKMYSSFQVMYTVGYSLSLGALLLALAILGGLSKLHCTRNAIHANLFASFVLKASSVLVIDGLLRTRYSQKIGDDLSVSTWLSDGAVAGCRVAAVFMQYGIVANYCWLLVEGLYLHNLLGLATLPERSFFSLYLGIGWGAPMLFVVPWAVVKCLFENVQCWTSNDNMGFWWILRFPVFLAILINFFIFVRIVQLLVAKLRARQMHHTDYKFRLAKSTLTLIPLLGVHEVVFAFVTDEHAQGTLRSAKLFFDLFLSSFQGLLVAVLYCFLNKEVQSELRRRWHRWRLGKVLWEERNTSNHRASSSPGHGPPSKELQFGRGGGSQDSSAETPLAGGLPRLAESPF

Consider `CCCCCCCCCCCCCCCC(=O)N[C@@H](CCC(=O)NCCOCCOCC(=O)NCCOCCOCC(=O)NCCCC[C@H](NC(=O)[C@H](CCCN)NC(=O)[C@H](CC(=O)O)NC(=O)[C@H](CC(C)C)NC(=O)[C@](C)(CC(C)C)NC(=O)[C@@H](NC(=O)[C@H](CO)NC(=O)[C@H](CCCCNC(=O)COCCOCCNC(=O)COCCOCCNC(=O)CC[C@H](NC(=O)CCCCCCCCCCCCCCC)C(=O)O)NC(=O)[C@H](CC(=O)O)NC(=O)[C@H](CO)NC(=O)[C@@H](NC(=O)[C@](C)(Cc1ccccc1F)NC(=O)[C@@H](NC(=O)CNC(=O)[C@H](CCC(=O)O)NC(=O)C(C)(C)NC(=O)[C@@H](N)Cc1ccc(O)cc1)[C@@H](C)O)[C@@H](C)O)[C@@H](C)CC)C(=O)N[C@@H](C)C(=O)N[C@@H](CCC(N)=O)C(=O)NC(C)(C)C(=O)N[C@@H](CCC(=O)O)C(=O)N[C@@H](Cc1ccccc1)C(=O)N[C@H](C(=O)N[C@H](CCC(=O)O)C(=O)N[C@@](C)(Cc1ccc(O)cc1)C(=O)N[C@@H](CC(C)C)C(=O)N[C@H](C(=O)N[C@@H](CCC(=O)O)C(=O)NCC(=O)NCC(=O)N1CCC[C@H]1C(=O)N[C@@H](CO)C(=O)N[C@@H](CO)C(=O)NCC(=O)N[C@@H](C)C(=O)N1CCC[C@H]1C(=O)N1CCC[C@H]1C(=O)N1CCC[C@H]1C(=O)N[C@@H](CO)C(N)=O)[C@@H](C)CC)[C@@H](C)CC)C(=O)O` [Example 29], for which the concentration giving a half-maximal response (EC50) in test [1] (0.1% bovine casein and 1.0% human serum albumin, 37° C., geometric mean, read-out: hGCGR EC50, nM (SEM, n)) is more than 9950 nM; in test [1] (cAMP, incubated at 37° C., 0.1% bovine casein (no human serum albumin), geometric mean, read-out: hGCGR EC50, nM (SEM, n)), more than 9950 nM; in test [3] (0.1% bovine casein and 1.0% human serum albumin, 37° C., read-out: hGLP-1R EC50, nM (SEM, n)), 0.876 nM; in test [4] (0.1% bovine casein and 1.0% human serum albumin, 37° C., read-out: hGIPR EC50, nM (SEM, n)), 0.472 nM. Also, the Ki in test [2] (human GLP-1R, geometric mean (SEM, n), read-out: Binding Affinity Ki, nM (SEM, n) hGLP-1R) came to 0.412 nM. For the same compound, the Emax in test [3] (HEK293, percent of maximal response to GLP-1(7-36)NH2, 37° C., 0.1% bovine casein, arithmetic mean, read-out: hGLP-1R Emax, % ± SEM) came to 100 ± 6.65%; in test [4] (HEK293, 0.1% bovine casein and 1.0% human serum albumin, 37° C., percent of maximal response to GIP(1-42)NH2, read-out: hGIPR Emax, % ± SEM), 96.9 ± 5.32%.
Turning to `CC[C@H](C)[C@H](NC(=O)[C@H](CCCN)NC(=O)[C@H](CC(=O)O)NC(=O)[C@H](CC(C)C)NC(=O)[C@](C)(CC(C)C)NC(=O)[C@@H](NC(=O)C(C)(C)NC(=O)[C@H](Cc1ccncc1)NC(=O)[C@H](CC(=O)O)NC(=O)[C@H](CO)NC(=O)[C@@H](NC(=O)[C@](C)(Cc1ccccc1F)NC(=O)[C@@H](NC(=O)CNC(=O)[C@H](CCC(=O)O)NC(=O)C(C)(C)NC(=O)[C@@H](N)Cc1ccc(O)cc1)[C@@H](C)O)[C@@H](C)O)[C@@H](C)CC)C(=O)N[C@@H](C)C(=O)N[C@@H](CCC(N)=O)C(=O)NC(C)(C)C(=O)N[C@@H](CCC(=O)O)C(=O)N[C@@H](Cc1ccccc1)C(=O)N[C@H](C(=O)N[C@@H](CCCCNC(=O)COCCOCCNC(=O)COCCOCCNC(=O)CC[C@H](NC(=O)CCCCCCCCCOc1ccc(C(=O)O)cc1)C(=O)O)C(=O)N[C@@](C)(Cc1ccc(O)cc1)C(=O)N[C@@H](CC(C)C)C(=O)N[C@H](C(=O)N[C@@H](CCCCNC(=O)COCCOCCNC(=O)COCCOCCNC(=O)CC[C@H](NC(=O)CCCCCCCCCOc1ccc(C(=O)O)cc1)C(=O)O)C(=O)NCC(=O)NCC(=O)N1CCC[C@H]1C(=O)N[C@@H](CO)C(=O)N[C@@H](CO)C(=O)NCC(=O)N[C@@H](C)C(=O)N1CCC[C@H]1C(=O)N1CCC[C@H]1C(=O)N1CCC[C@H]1C(=O)N[C@@H](CO)C(N)=O)[C@@H](C)CC)[C@@H](C)CC` [Example 246], the 50% effective concentration (EC50) is more than 9950 nM in test [1] (hGCGR EC50, nM (SEM, n), 0.1% bovine casein and 1.0% human serum albumin, 37° C., geometric mean); more than 9950 nM in test [1] (hGCGR EC50, nM (SEM, n), cAMP, incubated at 37° C., 0.1% bovine casein (no human serum albumin), geometric mean); 0.441 nM in test [3] (hGLP-1R EC50, nM (SEM, n), cAMP, incubated at 37° C., 0.1% bovine casein (no human serum albumin)); 0.0223 nM in test [4] (hGIPR EC50, nM (SEM, n), cAMP, incubated at 37° C., 0.1% bovine casein (no human serum albumin)). In test [2], the inhibition constant Ki worked out at 0.557 nM. The Emax was found to be 91% in test [4] (HEK293, read-out: hGIPR Emax, % ± SEM, 0.1% bovine casein and 1.0% human serum albumin, 37° C., percent of maximal response to GIP(1-42)NH2); 96.9% in test [4] (HEK293, read-out: hGIPR Emax, % ± SEM, percent of maximal response to GIP(1-42)NH2, 37° C., 0.1% bovine casein, arithmetic mean).
With `CC[C@H](C)[C@H](NC(=O)[C@H](CC(C)C)NC(=O)[C@](C)(Cc1ccc(O)cc1)NC(=O)[C@H](CCCCNC(=O)CCOCCOCCOCCOCCNC(=O)CC[C@H](NC(=O)CCCCCCCCCOc1ccc(C(=O)O)cc1)C(=O)O)NC(=O)[C@@H](NC(=O)[C@H](Cc1ccccc1)NC(=O)[C@H](CCCN)NC(=O)C(C)(C)NC(=O)[C@H](CCC(N)=O)NC(=O)[C@H](C)NC(=O)[C@H](CCC(N)=O)NC(=O)[C@H](CCCN)NC(=O)[C@H](CC(=O)O)NC(=O)[C@H](CC(C)C)NC(=O)[C@](C)(CC(C)C)NC(=O)[C@@H](NC(=O)C(C)(C)NC(=O)[C@H](Cc1ccncc1)NC(=O)[C@H](CC(=O)O)NC(=O)[C@H](CO)NC(=O)[C@@H](NC(=O)[C@](C)(Cc1ccccc1F)NC(=O)[C@@H](NC(=O)CNC(=O)[C@H](CCC(=O)O)NC(=O)C(C)(C)NC(=O)[C@@H](N)Cc1ccc(O)cc1)[C@@H](C)O)[C@@H](C)O)[C@@H](C)CC)[C@@H](C)CC)C(=O)N[C@@H](CCCCNC(=O)CCOCCOCCOCCOCCNC(=O)CC[C@H](NC(=O)CCCCCCCCCOc1ccc(C(=O)O)cc1)C(=O)O)C(=O)NCC(=O)NCC(=O)N1CCC[C@H]1C(=O)N[C@@H](CO)C(=O)N[C@@H](CO)C(=O)NCC(=O)N[C@@H](C)C(=O)N1CCC[C@H]1C(=O)N1CCC[C@H]1C(=O)N1CCC[C@H]1C(=O)N[C@@H](CO)C(N)=O` [Example 461], the EC50 in test [1] (setting [5]) was more than 10100 nM; in test [1] (setting [6]) it was more than 10100 nM; in test [3] (setting [8]), 0.173 nM; in test [4] (setting [10]) it was 0.0103 nM. Further, in test [2], affinity was put at a Ki of 0.14 nM. In addition, the maximum response (Emax) in test [3] (setting [7]) turned out to be 105%; in test [4] (setting [9]) it was 98.5%; in test [4] (HEK293, read-out: hGIPR Emax, % ± SEM, cAMP, 37° C., 0.1% bovine casein, percent of maximal response to GIP(1-42)NH2, arithmetic mean) it was 100%.
For `CC[C@H](C)[C@H](NC(=O)[C@H](CC(C)C)NC(=O)[C@](C)(Cc1ccc(O)cc1)NC(=O)[C@H](CCCCNC(=O)COCCOCCNC(=O)COCCOCCNC(=O)[C@H]1CC[C@H](CNC(=O)CC[C@H](NC(=O)CCCCCCCCCOc2ccc(C(=O)O)cc2)C(=O)O)CC1)NC(=O)[C@@H](NC(=O)[C@H](Cc1ccccc1)NC(=O)[C@H](CCCN)NC(=O)C(C)(C)NC(=O)[C@H](CCC(N)=O)NC(=O)[C@H](C)NC(=O)[C@H](CCC(N)=O)NC(=O)[C@H](CCCN)NC(=O)[C@H](CC(=O)O)NC(=O)[C@H](CC(C)C)NC(=O)[C@](C)(CC(C)C)NC(=O)[C@@H](NC(=O)C(C)(C)NC(=O)[C@H](Cc1ccncc1)NC(=O)[C@H](CC(=O)O)NC(=O)[C@H](CO)NC(=O)[C@@H](NC(=O)[C@](C)(Cc1ccccc1F)NC(=O)[C@@H](NC(=O)CNC(=O)[C@H](CCC(=O)O)NC(=O)C(C)(C)NC(=O)[C@@H](N)Cc1ccc(O)cc1)[C@@H](C)O)[C@@H](C)O)[C@@H](C)CC)[C@@H](C)CC)C(=O)N[C@@H](CCCCNC(=O)COCCOCCNC(=O)COCCOCCNC(=O)[C@H]1CC[C@H](CNC(=O)CC[C@H](NC(=O)CCCCCCCCCOc2ccc(C(=O)O)cc2)C(=O)O)CC1)C(=O)NCC(=O)NCC(=O)N1CCC[C@H]1C(=O)N[C@@H](CO)C(=O)N[C@@H](CO)C(=O)NCC(=O)N[C@@H](C)C(=O)N1CCC[C@H]1C(=O)N1CCC[C@H]1C(=O)N1CCC[C@H]1C(=O)N[C@@H](CO)C(N)=O` [Example 471], the EC50 is more than 9950 nM in test [1] (setting [5]), more than 9950 nM in test [1] (setting [6]), 0.143 nM in test [3] (setting [8]) and 0.0107 nM in test [4] (setting [10]). Also, the Ki in test [2] came to 0.197 nM. Further, the Emax in test [3] (setting [7]) was found to be 110%; in test [3] (HEK293, read-out: hGLP-1R Emax, % ± SEM, cAMP, 37° C., 0.1% bovine casein, percent of maximal response to GLP-1(7-36)NH2, arithmetic mean) it was 112%; in test [4] (setting [9]), 90.1%.
